# Reference: patent US20040142979A1, “Heteroarylsulfonylmethyl hydroxamic acids and amides and their use as protease inhibitors” (priority 2002, published 2004)
# Experiments:
# Assay type in all cases: biochemical
# Human recombinant MMP-9 = target: T1, Human recombinant MMP-9 (Homo sapiens, UniProt P14780); experiment: In vitro MMP inhibition analysis (fluorogenic peptide substrate), MMP-9; details: human recombinant enzyme; 4 μM substrate (A); apparent Ki without substrate correction
# T1 construct: made in house; host or cells: MMP-9-transfected HT1080 cells (spent media)
# Protocol: (§1) Several compounds and salts were analyzed in an in vitro assay to determine their ability to inhibit the MMP cleavage of peptide substrates. Inhibition constant (Ki) were calculated from the assayed compound-MMP interactions.
# (§2) Human recombinant MMP-1, MMP-2, MMP-9, MMP-13, and MMP-14 were used in this assay. All enzymes were prepared in Assignee's laboratories following usual laboratory procedures. Protocols for the preparation and use of these enzymes are available in the scientific literature. See, e.g., Enzyme Nomenclature (Academic Press, San Diego, Calif., 1992) (and the citations therein). See also, Freije et al., J. Biol. Chem., 269(24), 16766-16773 (1994).
# The MMP-9 proenzyme was purified by gelatin Sepharose chromatography from spent media of MMP-9-transfected HT1080 cells provided by Dr. Howard Welgus of Washington University (St. Louis, Mo.).
# (§3) All MMPs were activated using 4-aminophenylmercuric acetate (“APMA”, Sigma Chemical, St. Louis, Mo.) or trypsin. MMP-9 also was activated using human recombinant MMP-3 (purified in Assignee's laboratory following standard cloning and purification techniques).
# (§4) The following fluorogenic, methoxycoumarin-containing polypeptide substrate (A) was used in the MMP inhibition assays:
# (§5) MCA-ArgProLeuGlyLeuDpaAlaArgGluArgNH2 (A)
# (§6) “MCA” is 7-methoxycoumarin-4-yl acetyl. Substrate (A) was prepared Assignee's laboratory. In the absence of MMP inhibitory activity, the substrate is cleaved at the Gly-Leu peptide bond. This cleavage separates the highly fluorogenic peptide from the 2,4-dinitrophenyl quencher, thus resulting in increase of fluorescent intensity.
# (§7) The stock solutions of the assayed compounds and salts were prepared in 1% dimethyl sulfoxide (DMSO). These stock solutions were diluted in Buffer A (100 mM Tris-HCl, 100 mM NaCl, 10 mM CaCl2, 0.05% polyoxyethylene 23 lauryl ether, pH 7.5) to obtain solutions with different compound concentrations, i.e., assay solutions with different concentrations of the assayed MMP inhibitory compound. The experiment controls contained the same amount of Buffer A/DMSO as the assayed sample, but contained none of the tested compound or salt.
# (§8) The assays from which the Ki determinations were made were performed as follows. The assayed compound samples were incubated in separate wells of untreated white polystyrene plates (Nunc Nalgene International, Rochester, N.Y.), and analyzed on a Tecan SpectraFlour Plus plate reader. The excitation wavelength was 330 nm, and the emission wavelength -420 nm. All samples (assayed compounds and controls) were incubated in separate plate wells at room temperature for 1 hr in the presence of 4 μM of MMP substrate (A). In the absence of MMP inhibitory activity, substrate (A) was cleaved at the Gly-Leu bond resulting in an increase of relative fluorescence. Inhibition was observed as a reduced rate of this increase in relative fluorescence. […] This protocol is a modification of method by Knight et al., FEBS Lett., 296(3), 263-266 (1992). Apparent inhibitory constants were determined by non-linear regression of reaction velocity as a function of inhibitor and enzyme concentration using Morrison's equation, as described by Kuzmic, P., et al., Anal. Biochem., 286(1):45-50 (2000). Modifications were made in the non-linear regression method to allow a common control reaction rate and effective enzyme concentration to be shared between all dose-response relationships on a given assay plate. Since the substrate concentration was chosen to be at or below the Km, the apparent Ki's from this analysis were reported as Ki's without correction for the influence of substrate.
# (§9) The above protocols were used to determine MMP inhibition Ki constants for the compounds in Examples 1, 2, and 4-42 above. All Ki values in Table 3 are given in nM units.
# Human recombinant MMP-14 = target: T2, Human recombinant MMP-14 (Homo sapiens, UniProt P50281); experiment: In vitro MMP inhibition analysis (fluorogenic peptide substrate), MMP-14; details: human recombinant catalytic domain; 4 μM substrate (A); apparent Ki without substrate correction
# T2 construct: The catalytic domain enzyme was expressed in E. Coli inclusion bodies; made in house
# Protocol: as §1, §2
# The MMP-14 full length cDNA was provided by Dr. Gregory Goldberg of Washington University (St. Louis, Mo.). The catalytic domain enzyme was expressed in E. Coli inclusion bodies, solubilized in urea, purified on a preparative […] reverse phase HPLC column, and then refolded in the presence of zinc acetate and purified for use.
# as §3, §4, §5, §6, §7, §8, §9
# Human recombinant MMP-2 = target: T3, Human recombinant MMP-2 (Homo sapiens, UniProt P08253); experiment: In vitro MMP inhibition analysis (fluorogenic peptide substrate), MMP-2; details: human recombinant enzyme; 4 μM substrate (A); apparent Ki without substrate correction
# T3 construct: made in house; host or cells: MMP-2-transfected p2AHT2 cells
# T3 sequence (P08253 110-660): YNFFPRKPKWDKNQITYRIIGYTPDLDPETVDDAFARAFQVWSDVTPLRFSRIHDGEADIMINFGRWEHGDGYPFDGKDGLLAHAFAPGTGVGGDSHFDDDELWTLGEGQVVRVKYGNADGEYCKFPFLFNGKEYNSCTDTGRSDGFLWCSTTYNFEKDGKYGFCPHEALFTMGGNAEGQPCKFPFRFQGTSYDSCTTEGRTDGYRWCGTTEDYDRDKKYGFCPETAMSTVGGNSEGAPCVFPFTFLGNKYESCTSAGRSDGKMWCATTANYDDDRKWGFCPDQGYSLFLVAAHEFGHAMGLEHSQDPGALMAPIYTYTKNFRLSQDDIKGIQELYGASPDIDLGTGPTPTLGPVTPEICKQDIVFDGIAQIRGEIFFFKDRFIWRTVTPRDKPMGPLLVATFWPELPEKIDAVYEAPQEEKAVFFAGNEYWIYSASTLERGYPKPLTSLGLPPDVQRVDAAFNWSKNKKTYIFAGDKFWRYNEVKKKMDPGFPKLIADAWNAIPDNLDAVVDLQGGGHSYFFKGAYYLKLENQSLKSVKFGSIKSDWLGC
# Protocol: as §1, §2
# The MMP-2 proenzyme was purified by gelatin Sepharose chromatography from MMP-2- transfected p2AHT2 cells provided by Dr. Gregory Goldberg of Washington University (St. Louis, Mo.).
# as §3, §4, §5, §6, §7, §8, §9
# T1 sequence (P14780 107-707 limits assumed): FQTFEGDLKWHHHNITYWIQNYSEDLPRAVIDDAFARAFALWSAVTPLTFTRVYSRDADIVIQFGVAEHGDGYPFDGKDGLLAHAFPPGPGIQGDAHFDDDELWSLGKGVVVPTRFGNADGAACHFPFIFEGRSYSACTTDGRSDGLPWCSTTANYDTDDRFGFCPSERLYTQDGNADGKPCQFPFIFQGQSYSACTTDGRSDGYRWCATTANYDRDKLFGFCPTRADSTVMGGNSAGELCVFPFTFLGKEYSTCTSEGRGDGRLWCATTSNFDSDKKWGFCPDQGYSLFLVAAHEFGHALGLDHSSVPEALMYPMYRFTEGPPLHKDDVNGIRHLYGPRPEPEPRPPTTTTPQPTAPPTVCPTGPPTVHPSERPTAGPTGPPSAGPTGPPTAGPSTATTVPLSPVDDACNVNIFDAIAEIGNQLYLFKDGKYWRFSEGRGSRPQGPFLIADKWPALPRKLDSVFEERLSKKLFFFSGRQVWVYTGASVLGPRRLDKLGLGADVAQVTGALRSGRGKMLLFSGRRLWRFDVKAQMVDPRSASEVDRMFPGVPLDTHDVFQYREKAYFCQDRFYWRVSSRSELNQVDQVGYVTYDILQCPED
Ki (Human recombinant MMP-9) [nM],Ki (Human recombinant MMP-14) [nM],Ki (Human recombinant MMP-2) [nM],SMILES
0.636,3330,2.07,O=C(NO)C1(S(=O)(=O)c2ccc3nc(-c4ccc(OC(F)(F)F)cc4)sc3c2)CCOCC1 [Example 51]
428,> 10000,26.3,CCCCNC(=O)c1ccc(-c2ccc(S(=O)(=O)C3(C(=O)NO)CCOCC3)cn2)cc1 [Example 76]
2040,3150,46.6,O=C(NO)C1(S(=O)(=O)c2ccc3c(c2)sc2nc(-c4ccccc4)cn23)CCOCC1 [Example 83]
2220,> 10000,91.8,CCCCNC(=O)Cc1ccc(-c2ccc(S(=O)(=O)C3(C(=O)NO)CCOCC3)cn2)cc1 [Example 73]
894,> 10000,668,CC(C)CN(C)C(=O)c1ccc(-c2ccc(S(=O)(=O)C3(C(=O)NO)CCOCC3)cn2)cc1 [Example 82]
68.5,798,40.3,O=C(NO)C1(S(=O)(=O)c2ccc3nc(N4CCC(Oc5ccc(OC(F)(F)F)cc5)CC4)sc3c2)CCOCC1 [Example 56]
